Data published in article PMC4853715, “Design, Synthesis and Antitumor Activity of Novel link-bridge and B-Ring Modified Combretastatin A-4 (CA-4) Analogues as Potent Antitubulin Agents” (Scientific Reports, 2016).

Experiments:
A549 = test: MTT assay, antiproliferative activity; type: cell-based; conditions: Homo sapiens, 48 h, ± SD
Method: (§1) The in vitro anticancer activities of the prepared compounds against HepG2, Hela, MCF-7, A549, HT-29 and SSC-4 cell lines were evaluated as described in the literature. Target tumor cells were grown to log phase in DMEM medium supplemented with 10% fetal bovine serum. After reaching a dilution of 1 × 10^5 cells Ml^−1 with the medium, 100 μL of the obtained cell suspension was added to each well of 96-well culture plates. Subsequently, incubation was performed at 37 °C in 5% CO2 atmosphere for 12 h before the cytotoxicity assessment. Tested samples at preset concentrations were added to 6 wells with CA-4 being employed as a positive reference. After 48 h exposure period, 25 μL of PBS containing 2.5 mg mL^−1 of MTT (Sigma, USA) was added to each well. After 4 h, the medium was replaced by 150 μL DMSO to dissolve the purple formazan crystals produced. The absorbance at 570 nm of each well was measured with Synergy™ 2 Multi-Mode Microplate Reader. Cell viability (%) was calculated using the following equation: cell viability (%) = (Atreatment/Acontrol) × 100%. The data represented the mean of three independent experiments in triplicate and were expressed as means ± SD.

HT-29 = test: MTT assay, antiproliferative activity; type: cell-based; conditions: Homo sapiens; HT-29, MTT, 48 h, ± SD
Method: as §1

Hela = test: MTT assay, antiproliferative activity; type: cell-based; conditions: Homo sapiens, 48 h, ± SD
Method: as §1

HepG2 = test: MTT assay, antiproliferative activity; type: cell-based; conditions: Homo sapiens, 48 h, ± SD
Method: as §1

MCF-7 = test: MTT assay, antiproliferative activity; type: cell-based; conditions: Homo sapiens, MCF7; MCF-7, MTT, 48 h, ± SD
Method: as §1

SSC-4 = test: MTT assay, antiproliferative activity; type: cell-based; conditions: Homo sapiens; SSC-4, MTT, 48 h, ± SD
Method: as §1

Bovine brain tubulin = test: Effects on tubulin polymerization (turbidimetric assembly); type: biochemical; conditions: 10 μM tubulin, 30 °C, 20 min incubation; read-out: Tubulin inhibition IC50
Method: Bovine brain tubulin was purified as described previously. To evaluate the effect of the compounds on tubulin assembly in vitro, compounds of varying concentrations were preincubated with 10 μM tubulin in glutamate buffer at 30 °C and then cooled to 0 °C. After addition of GTP, the mixtures were transferred to 0 °C cuvettes in a recording BioTek Synergy 4 multifunction microplate spectrophotometer and warmed up to 30 °C and the assembly of tubulin was observed turbidimetrically (TU660, USA).

[1] = biological target: colchicine-binding site of tubulin; test: [3H] Colchicine-tubulin binding assay; conditions: 37 °C, 60 min; read-out: IC50, competition with [3H]colchicine binding to tubulin
Method: One micromolar radiolabeled colchicine [ring C, Methoxy-^3H] (Perkin-Elmer), 1% DMSO and various concentrations of test compounds in 50 μL G-PEM buffer containing 80 mmol/L PIPES (pH 6.8), 1 mmol/L EGTA, 1 mmol/L MgCl2 and 1 mmol/L GTP, and 5% glycerol were incubated with […] (>99% pure,; Cytoskeleton, Inc.; 0.2 mg/mL) at 37 °C for 60 min. The binding solutions were filtered through a stack of 2 DEAE-cellulose filters and washed twice. The radioactivity in the filtrates was determined by liquid scintillation spectrometry (Perkin-Elmer Wallac). Nonlinear regression was used to analyze the data using GraphPad Prism.

[2] = test system: Tubulin isolated from porcine brain tissue; test: Tubulin polymerization assay (kit, absorbance 340 nm); type: biochemical; conditions: 8.0 μM, 37 °C
Method: Tubulin polymerization was determined with the tubulin polymerization assay kit (Cytoskeleton, Denver, CO which was purchased from Cytoskeleton, Beyotime, China. Tubulin isolated from porcine brain tissue was used in this commercial kit.) It is based on the principal that light is scattered by microtubules to an extent that is proportional to the concentration of the microtubule polymer. Compounds that interact with tubulin will alter the polymerization of tubulin, and this can be detected using a spectrophotometer. Tubulin polymerization dynamics was monitored through measuring the change of absorbance at 340 nm every 2 min for 30 min at 37 °C on a spectrophotometer (Perkin-Elmer).

[3] = test system: polymerized tubulin in A549 cells; test: Flow cytometry of extracellular polymerized tubulin; type: cell-based, human; conditions: A549, 1 μM, 48 h
Method: Then, cells were harvested, washed once with PBS and blocked with 1% BSA for 30 min on ice, then were centrifuged (2800 rpm at 4 °C for 5 minutes) to remove supernatant. After that, cells were incubated with β-tubulin antibody (AT819, Beyotime, China) for 1 h on ice and were centrifuged (2800 rpm at 4 °C for 5 minutes) to remove supernatant. Next, cells were incubated with CY5.5-linked anti-rabbit IgG (A7016, Beyotime, China) on ice for 1 h and were also centrifuged (2800 rpm at 4 °C for 5 minutes) to remove supernatant. Finally, cells were then resuspended in PBS and the expression level of polymerized tubulin was analysed by flow cytometry (BD, USA).

[4] = test system: interphase microtubules of A549 cells; test: Confocal microscopy assay of microtubule morphology; type: cell-based, human; conditions: A549, 1.0 μM, 48 h
Method: After incubating for 48 h, A549 cells were washed with PBS for three times and fixed with 4% paraformaldehyde for 20 min, permeabilized with cold methanol for another 10 min. After that, the cells were blocked with 5% BSA for 1 h. Subsequently, the cells were washed with PBS, and incubated with anti-tubulin antibody in 3% BSA (1:200 Cytoskeleton, Inc.) overnight at 4 °C. After being washed with PBS for three times, each cover slip was added 200 μL of Cy3-labeled goat anti-mouse IgG (H + L) in 3% BSA (1:500, Cytoskeleton, Inc.) and incubated for 1 h at room temperature. At last, A549 cells was stained with 200 μL of DAPI for 5 min and observed under an confocal microscope (Olympus, USA).

A549 xenograft tumor = test: In vivo anti-tumor activity, A549 xenograft; parameters: species or system BALB/c nude mice; conditions: CA-4P group, 30 mg/kg or 15 mg/kg
Method: Mice were subcutaneously inoculated with injections of 5.0 × 10^6 cells/nude mice. After 12–14 days, tumor sizes were determined using micrometer calipers, and then nude mice with similar tumor volume (~100 mm^3, eliminate mice with tumors that are too large or too small) were randomly divided them into four groups (with six nude mice/group). […] Both drugs, as well as the vehicle control, were administered every other day for the entire period of observation.
Male BALB/c nude mice, five weeks old and weighing 18–22 g, were supplied by Shanghai Laboratory Animal Limited Company. The mice were raised in air-conditioned rooms under controlled lighting (12 h light-dark cycle at 24 °C) and were fed with standard laboratory food and water ad libitum. Before injection into the mice, the A549 cells were harvested by trypsinization and washed three times with cold serum-free medium and then injected in a total volume of 0.1 mL using a 1 mL latex-free syringe (BD) within 30 min of harvest. Mice were inoculated subcutaneously with A549 cells (5.0 × 10^6) on their shoulders. […] The control group received 0.9% normal saline. Tumor size was measured once every 2 days in two per-pendicular dimensions with Vernier calipers and converted to tumor volume (TV) using the formula: (ab^2)/2, where a and b refer to the longer and shorter dimensions, respectively. The body weight of the animals was measured twice a week to assess toxicity of the treatments at the same time as the tumor dimension measurement and the mortality was monitored daily. After the treatments for eight weeks, the animals were euthanized by cervical dislocation. This study conformed to the Guide for the Care and Use of Laboratory Animals as published by the US National Institutes of Health and was approved by the Institutional Ethics Review Board of Nanjing University.

Structure (SMILES)	IC50 (A549)	IC50 (HT-29)	IC50 (Hela)	IC50 (HepG2)	IC50 (MCF-7)	IC50 (SSC-4)	IC50 (Bovine brain tubulin)	IC50 [1]	tubulin polymerization (in words) [2]	microtubule assembly (polymerized tubulin, curve shift versus control) [3]	microtubule morphology [4]	tumor growth reduction versus vehicle at end of observation (A549 xenograft tumor; every other day)	average weight of the excised tumors (A549 xenograft tumor; control group 1.802 g)
COc1ccc(/C=C\c2cc(OC)c(OC)c(OC)c2)cc1O [CA-4, combretastatin A-4]	0.13 ± 0.02 µM	15.6 ± 0.06 µM	5.52 ± 0.82 µM	0.46 ± 0.07 µM	0.81 ± 0.11 µM	27.2 ± 1.78 µM	[…]	4.96 µM	nearly completely blocked	[…]	disorganized interphase microtubules		
COc1ccc(/C=C\c2cc(OC)c(OC)c(OC)c2)cc1OP(=O)(O)O [CA-4P, fosbretabulin, reference compound]												39%	1.102 g
COc1cc(/C=N/NC(=O)c2cn(C)c3ccccc23)cc(OC)c1OC [Compound 4]	0.29 ± 0.04 µM	26.7 ± 1.89 µM	8.45 ± 1.87 µM	2.43 ± 0.23 µM	3.21 ± 0.76 µM	43.2 ± 3.98 µM	14.8 µM						
CCn1cc(C(=O)N/N=C/c2cc(OC)c(OC)c(OC)c2)c2ccccc21 [Compound 5]	1.18 ± 0.11 µM	56.8 ± 2.1 µM	23.8 ± 2.23 µM	10.6 ± 1.98 µM	14.2 ± 1.11 µM	55.2 ± 3.48 µM	23.4 µM						
CCCn1cc(C(=O)N/N=C/c2cc(OC)c(OC)c(OC)c2)c2ccccc21 [Compound 6]	9.89 ± 1.16 µM	70 ± 3.76 µM	56.9 ± 4.89 µM	39 ± 3.23 µM	28.9 ± 3.23 µM	79.9 ± 2.78 µM	55.7 µM						
COc1cc(C(=O)/C=C\c2cn(C)c3ccccc23)cc(OC)c1OC [Compound 10]	12.1 ± 1.2 µM	44.5 ± 2.87 µM	23.9 ± 5.89 µM	19.6 ± 1.98 µM	29.9 ± 3.21 µM	43.2 ± 3.3 µM	49.9 µM						
CCn1cc(/C=C\C(=O)c2cc(OC)c(OC)c(OC)c2)c2ccccc21 [Compound 11]	27.9 ± 6.71 µM	49.9 ± 6.98 µM	34.2 ± 1.19 µM	27.8 ± 2.23 µM	45.5 ± 5.67 µM	57.8 ± 4.67 µM	125 µM						
CCCn1cc(/C=C\C(=O)c2cc(OC)c(OC)c(OC)c2)c2ccccc21 [Compound 12]	37.9 ± 3.61 µM	78.9 ± 3.51 µM	67.9 ± 4.47 µM	53.9 ± 2.81 µM	69.8 ± 5.43 µM	90 ± 9.98 µM	> 200 µM						
COc1cc(C(=O)/C=C\c2cn(Cc3ccccc3)c3ccccc23)cc(OC)c1OC [Compound 13]	2.78 ± 0.92 µM	34.7 ± 5.34 µM	4.78 ± 1.43 µM	2.98 ± 0.34 µM	4.54 ± 0.96 µM	25.7 ± 2.78 µM	24.8 µM						
COc1cc(NC(=O)c2cn(C)c3ccccc23)cc(OC)c1OC [Compound 16]	17.6 ± 1.9 µM	46.4 ± 2.83 µM	26.8 ± 6.81 µM	17.5 ± 1.46 µM	27.4 ± 2.41 µM	45.5 ± 2.6 µM	46.8 µM						
CCn1cc(C(=O)Nc2cc(OC)c(OC)c(OC)c2)c2ccccc21 [Compound 17]	26.5 ± 6.2 µM	39.4 ± 3.45 µM	35.7 ± 2.34 µM	28.3 ± 3.33 µM	48.3 ± 6.58 µM	47.2 ± 4.33 µM	> 200 µM						
CCCn1cc(C(=O)Nc2cc(OC)c(OC)c(OC)c2)c2ccccc21 [Compound 18]	40.2 ± 4.41 µM	82.2 ± 3.7 µM	77.4 ± 5.78 µM	62.8 ± 3.65 µM	59.8 ± 3.43 µM	90.3 ± 6.76 µM	> 200 µM						
COc1cc(NC(=O)c2cn(Cc3ccccc3)c3ccccc23)cc(OC)c1OC [Compound 19]	2.69 ± 0.4 µM	32.7 ± 3.31 µM	5.74 ± 1.06 µM	3.68 ± 0.36 µM	3.61 ± 0.46 µM	29.5 ± 3.42 µM	19.9 µM						
COc1cc2c(c(OC)c1OC)-c1ccc(OC)c(=O)cc1[C@@H](NC(C)=O)CC2 [colchicine]											depolymerization and solubilization		
CC(=O)O[C@H]1C(=O)[C@@]2(C)[C@H]([C@H](OC(=O)c3ccccc3)[C@]3(O)C[C@H](OC(=O)[C@H](O)[C@@H](NC(=O)c4ccccc4)c4ccccc4)C(C)=C1C3(C)C)[C@]1(OC(C)=O)CO[C@@H]1C[C@@H]2O [paclitaxel]											substantial stabilization of microtubules		
